Laboratory results taken from patent US9260455B2, “Alkyl-substituted hexahydropyrano[3,4-d][1,3]thiazin-2-amine compounds” (Pfizer Inc., priority 2012, dated 2016).
Like-named read-outs stand apart in the source and are kept apart here.

What was measured:
[1] = system: H4 human neuroglioma cells over-expressing the wild-type human APP695; assay: sAPPβ Whole-Cell Assay (in vitro sAPPb assay); format: cell-based; conditions: read-out: sAPPβ Whole-Cell Assay IC50
Protocol: Whole Cell Assay (In Vitro sAPPb Assay):
H4 human neuroglioma cells over-expressing the wild-type human APP695 are treated for 18 hours with compound in cell growth media having a final concentration 1% DMSO. sAPPβ levels are measured using TMB-ELISA with capture APP N-terminal antibody (Affinity BioReagents, OMA1-03132), wild-type sAPPβ specific reporter p192 (Elan), and tertiary anti rabbit-HRP (GE Healthcare).

BACE2 = BACE2 (Homo sapiens (Human), UniProt Q9Y5Z0); assay: BACE2 Cell-free Assay; format: biochemical; conditions: fluorescence polarization; 2.5 nM BACE2, 150 nM peptide substrate, pH 4.5, 3 hours at 37° C.; geometric mean
Sequence of BACE2 (Q9Y5Z0 63-518): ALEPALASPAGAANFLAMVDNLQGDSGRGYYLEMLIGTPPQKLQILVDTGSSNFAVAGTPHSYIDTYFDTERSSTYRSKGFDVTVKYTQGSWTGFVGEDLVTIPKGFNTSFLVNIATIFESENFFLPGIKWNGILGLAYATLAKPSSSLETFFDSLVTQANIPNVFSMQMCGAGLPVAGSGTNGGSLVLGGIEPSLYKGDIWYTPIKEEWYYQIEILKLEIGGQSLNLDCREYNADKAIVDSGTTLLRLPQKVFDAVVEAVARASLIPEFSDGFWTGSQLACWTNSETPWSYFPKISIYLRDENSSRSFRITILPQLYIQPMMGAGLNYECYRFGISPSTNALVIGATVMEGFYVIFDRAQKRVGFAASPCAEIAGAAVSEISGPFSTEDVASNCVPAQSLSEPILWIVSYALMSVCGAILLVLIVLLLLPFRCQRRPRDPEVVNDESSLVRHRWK
Protocol: BACE2 Assay: This assay measures the inhibition of the BACE2 enzyme as it cleaves a non-native peptide. […] The substrate is Biotin-[…](Oregon green)-KK-OH. The BACE2 enzyme is available from Enzo Life Sciences (Cat #BML-SE550). Compounds are incubated in a 1⁄2 log dose response curve from a top concentration of 100 μM with BACE2 enzyme and the biotinylated fluorescent peptide in 384-well black plates (Thermo Scientific #4318). […] Plates are covered and incubated for 3 hours at 37° C. The reaction is stopped with the addition of 30 μL of 1.5 μM Streptavidin (Pierce, #21125). After a 10 minute incubation at room temperature, plates are read on a PerkinElmer Envision for fluorescent polarization (Ex485 nm/Em530 nm). The activity of the beta-secretase enzyme is detected by changes in the fluorescence polarization that occur when the substrate is cleaved by the enzyme.

BACE1 = BACE1 (Homo sapiens (Human), UniProt P56817); assay: BACE1 Cell-Free Assay; format: biochemical; conditions: fluorescence polarization; 0.1 nM BACE1, 150 nM peptide substrate, pH 4.5, 3 hours at 37° C.; geometric mean
Sequence of BACE1 (P56817 46-457): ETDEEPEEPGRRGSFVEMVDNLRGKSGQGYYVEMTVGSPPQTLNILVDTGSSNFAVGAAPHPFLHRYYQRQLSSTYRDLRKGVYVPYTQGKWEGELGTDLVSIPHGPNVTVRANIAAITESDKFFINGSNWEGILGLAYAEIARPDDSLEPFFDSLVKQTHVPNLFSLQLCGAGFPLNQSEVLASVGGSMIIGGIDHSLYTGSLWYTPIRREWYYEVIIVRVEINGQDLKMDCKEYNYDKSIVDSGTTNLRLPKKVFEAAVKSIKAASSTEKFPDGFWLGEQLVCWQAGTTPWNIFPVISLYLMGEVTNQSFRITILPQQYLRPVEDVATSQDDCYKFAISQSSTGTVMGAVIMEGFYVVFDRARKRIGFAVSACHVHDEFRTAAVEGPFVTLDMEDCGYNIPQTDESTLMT

[2] = H4 cells, 18 hours with compound, sAPPβ by TMB-ELISA, geometric mean

SMILES | IC50 [1, 2] [nM] | IC50 (BACE2) [nM] | IC50 (BACE1) [nM] | IC50 ([1]; 18 h) [nM]
C[C@H]1C[C@H]2CSC(N)=N[C@@]2(c2ccc(F)cc2F)CO1 [Example 3, (4aR,6S,8aS)-8a-(2,4-Difluorophenyl)-6-methyl-4,4a,5,6,8,8a-hexahydropyrano[3,4-d][1,3]thiazin-2-amine] | 37.2 | 1140 | – | –
COC[C@H]1C[C@H]2CSC(N)=N[C@@]2(c2ccc(F)cc2F)CO1 [Example 8, (4aR,6R,8aS)-8a-(2,4-Difluorophenyl)-6-(methoxymethyl)-4,4a,5,6,8,8a-hexahydropyrano[3,4-d][1,3]thiazin-2-amine] | 30 | 1630 | – | –
CCOC[C@H]1C[C@H]2[C@@H](C)SC(N)=N[C@@]2(c2ccc(F)cc2F)CO1 [Example 5, (4R,4aR,6R,8aS)-8a-(2,4-Difluorophenyl)-6-(ethoxymethyl)-4-methyl-4,4a,5,6,8,8a-hexahydropyrano[3,4-d][1,3]thiazin-2-amine] | – | 274 | 613 | 39
NC1=N[C@@]2(c3ccc(F)cc3F)CO[C@@H](C(F)F)C[C@H]2CS1 [Example 4, (4aR,6R,8aS)-6-(Difluoromethyl)-8a-(2,4-difluorophenyl)-4,4a,5,6,8,8a-hexahydropyrano[3,4-d][1,3]thiazin-2-amine] | – | 2140 | – | –

Continued, in another order:

IC50 [1, 2] [nM] | IC50 (BACE2) [nM] | IC50 (BACE1) [nM] | SMILES | IC50 ([1]; 18 h) [nM]
20.6 | – | – | CC(C)C[C@H]1C[C@H]2CSC(N)=N[C@@]2(c2ccc(F)cc2F)CO1 [Example 7, (4aR,6S,8aS)-8a-(2,4-Difluorophenyl)-6-(2-methylpropyl)-4,4a,5,6,8,8a-hexahydropyrano[3,4-d][1,3]thiazin-2-amine] | –
42.9 | 5080 | 718 | CC(C)OC[C@H]1C[C@H]2[C@@H](C)SC(N)=N[C@@]2(c2ccc(F)cc2F)CO1 [Example 6, (4R,4aR,6R,8aS)-8a-(2,4-Difluorophenyl)-4-methyl-6-[(propan-2-yloxy)methyl]-4,4a,5,6,8,8a-hexahydropyrano[3,4-d][1,3]thiazin-2-amine] | –
61.4 | 1560 | 805 | C[C@H]1SC(N)=N[C@@]2(c3ccc(F)cc3F)CO[C@@H](CF)C[C@@H]12 [Example 1, (4R,4aR,6R,8aS)-8a-(2,4-Difluorophenyl)-6-(fluoromethyl)-4-methyl-4,4a,5,6,8,8a-hexahydropyrano[3,4-d][1,3]thiazin-2-amine] | –
31.9 | 2310 | 737 | COC[C@H]1C[C@H]2[C@@H](C)SC(N)=N[C@@]2(c2ccc(F)cc2F)CO1 [Example 2, (4R,4aR,6R,8aS)-8a-(2,4-Difluorophenyl)-6-(methoxymethyl)-4-methyl-4,4a,5,6,8,8a-hexahydropyrano[3,4-d][1,3]thiazin-2-amine] | –
